The target in one assay is T1, IRAK4 enzyme (Homo sapiens, UniProt Q9NWZ3).
T1 construct: purchased Carna Biosciences, Chuo-ku, Kobe, Japan
T1 sequence (Q9NWZ3 1-460): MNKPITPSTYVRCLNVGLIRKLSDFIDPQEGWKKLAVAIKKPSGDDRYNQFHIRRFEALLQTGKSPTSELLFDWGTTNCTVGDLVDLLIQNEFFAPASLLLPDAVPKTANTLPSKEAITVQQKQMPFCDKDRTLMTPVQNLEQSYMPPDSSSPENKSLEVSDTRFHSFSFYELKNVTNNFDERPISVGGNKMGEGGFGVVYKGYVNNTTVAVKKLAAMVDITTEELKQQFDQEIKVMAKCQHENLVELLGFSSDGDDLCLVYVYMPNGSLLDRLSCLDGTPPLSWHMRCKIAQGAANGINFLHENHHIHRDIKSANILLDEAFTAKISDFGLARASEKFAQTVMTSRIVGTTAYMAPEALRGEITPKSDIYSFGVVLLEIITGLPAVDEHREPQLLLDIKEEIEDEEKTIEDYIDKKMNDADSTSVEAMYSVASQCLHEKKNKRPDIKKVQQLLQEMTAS
As to the kind of experiment: IRAK4 Biochemical Assay (TR-FRET, STK1 KinEASE). As to conditions: 500 μM ATP. As for the experimental part:
IRAK4 enzyme (Carna Biosciences, Chuo-ku, Kobe, Japan) activity was measured by detecting phosphorylated peptide substrate formation using an antibody against the phosphorylated peptide substrate. This is a time-resolved fluorescence resonance energy transfer (TR-FRET) immunoassay, based on the STK1 KinEASE Assay (Cisbio, Bedford, Massachusetts). The assay was designed as a simple two-step, endpoint assay (a 5 μl enzyme reaction followed by 5 μl stop and detect Solution) performed in ProxiPlate-384 Plus plates (Perkin Elmer, Waltham, Massachusetts). […] Compounds diluted in DMSO were spotted into 384 well plates using a Labcyte® Echo 550 Liquid Handling System prior to addition of IRAK4 enzyme and peptide substrate. Reaction solutions were delivered using a Multi-Flo (Bio-Tek Instruments). The enzyme and peptide solution was incubated with compound for 15 minutes at room temp before the reaction was initiated by the addition of ATP. The standard 5 μl reaction mixture contained 500 μM ATP, 2 μM peptide (STK1 Peptide), 0.75 nM of IRAK4 in reaction buffer (50 mM HEPES, pH 7.0, 0.02% NaN3, 0.01% BSA, 0.1 mM Orthovanadate, 5 mM MgCl2, 0.025% NP-40, 1 mM DTT). After 120 min of incubation at room temperature, 5 μl of Stop and Detect Solution (1:100 Cryptate labeled anti-phosphorylated peptide antibody solution and 125 nM Tracer in a 50 mM HEPES pH 7.0 detection buffer containing sufficient EDTA) was added. The plate was then further incubated for 60 minutes at room temperature and read on Envision 2103 Multilabeled reader (PerkinElmer) with excitation/emission/FRET emission at 340 nm/615 nm/665 nm, respectively. Fluorescence intensities at 615 nm and 665 nm emission wavelengths were expressed as a ratio (665 nm/615 nm).

Another assay deals with TNFα. As to the kind of experiment: IRAK4 Monocyte TNFα Cell Based Assay (LPS-stimulated, TR-FRET TNFα detection). More on the design: species or system human. Particulars: read-out: EC50 MONO TNF HTRF. On the procedure: IRAK4 Monocyte TNFα Cell Based Assay Procedure:
The cell suspension was then plated at a density of 5,000 cells/well onto black 384 well Greiner clear bottom plates. Plates were pre-spotted with test compounds and serially diluted in DMSO where 40 nL/well were delivered using the Echo 550 acoustic liquid dispenser (Labcyte®) for a final DMSO concentration of 0.1%. Plated cells were treated with compound for 1 hour at 37° C. Cells were then stimulated with 50 pg/ml of LPS (Sigma) excluding outside columns of plate used for unstimulated cell control wells. Cells were incubated for an additional 4 hours at 37° C. Cells were then spun out of the media and 5 μl of sample were taken and analyzed for total TNFα content using the TR-FRET Human TNFα detection system (CisBio). This system utilizes two labeled antibodies (cryptate and XL665) that bind to two different epitopes of the TNFα molecule and produce FRET signal proportional to the concentration of TNFα in the sample. Detection antibodies are mixed 50:50 and 5 μL were dispensed into each well. Plates were covered with clear seals and incubated at room temp overnight. […] Percent of control was calculated as follows: % Control=100×(RatioSample−Ratio0% Stimulation)/(Ratio100% Stimulation−Ratio0% Stimulation) where unstimulated cells (0% stimulation) were the negative control and stimulated cells (100% stimulation) were used as the positive control.

Where [1] appears, read: Homo sapiens, Monocyte, human monocytes, LPS-stimulated, Table 2 second part (compounds 33-343).
Where [2] appears, read: human monocytes, LPS-stimulated, Table 2 second part (compounds 33-343).

Structures are written as SMILES. Where two headings read alike, the source gives them in different places.

The IC50 is the concentration that inhibits the measured activity by half. On IRAK4 enzyme (IC50 IRAK4-HTBS, Table 2 second part (compounds 33-343)), `CC(C)Nc1cc(-c2ccc3cc(C#N)cnn23)ncc1-c1nnc([C@@H]2CC[C@H]2C(C)(C)O)s1` (racemic) [Example 88, 7-(5-(5-((1,2-trans)-2-(2-hydroxypropan-2-yl)cyclobutyl)-1,3,4-thiadiazol-2-yl)-4-(isopropylamino)pyridin-2-yl)pyrrolo[1,2-b]pyridazine-3-carbonitrile] gave a half-inhibitory concentration (IC50) of 0.83 nM. As usually defined, the EC50 is the midpoint of the concentration-response curve. Regarding `CC(C)Nc1cc(-c2ccc3cc(C#N)cnn23)ncc1-c1nnc(N2CCS(=O)(=O)CC2)s1` [Compound 257, 7-(5-(5-(1,1-dioxidothiomorpholino)-1,3,4-thiadiazol-2-yl)-4-(isopropylamino)pyridin-2-yl)pyrrolo[1,2-b]pyridazine-3-carbonitrile], the concentration for a half-maximal effect (EC50) in the assay on TNFα (setting [1]) is at least 10000 nM. Regarding `CC(=O)N[C@H]1CC[C@H](c2nnc(-c3cnc(-c4ccc5cc(C#N)cnn45)cc3NC(C)C)s2)CC1` [Example 24, N-((1r,4r)-4-(5-(6-(3-cyanopyrrolo[1,2-b]pyridazin-7-yl)-4-(isopropylamino)pyridin-3-yl)-1,3,4-thiadiazol-2-yl)cyclohexyl)acetamide], the half-maximal inhibitory concentration (IC50) on IRAK4 enzyme (Table 2 first part (compounds 1-32), read-out: IC50 HTRF) is below 1 nM. For the compound `CC(=O)N[C@@H]1[C@@H]2CC[C@H]1CN(c1nnc(-c3cnc(-c4ccc5cc(C#N)cnn45)cc3N[C@H](C)C#N)s1)C2` [Example 53, N-((1R,5S,8S)-3-(5-(4-(((R)-1-cyanoethyl)amino)-6-(3-cyanopyrrolo[1,2-b]pyridazin-7-yl)pyridin-3-yl)-1,3,4-thiadiazol-2-yl)-3-azabicyclo[3.2.1]octan-8-yl)acetamide], in the assay on TNFα (setting [1]), the EC50 came to 0.6 nM. Same read-out and setting: the value for `CC(=O)NC12CCC(c3nnc(-c4cnc(-c5ccc6cc(C#N)cnn56)cc4N[C@H](C)C#N)s3)(CC1)CC2` [Example 72, (R)-N-(4-(5-(4-((1-cyanoethyl)amino)-6-(3-cyanopyrrolo[1,2-b]pyridazin-7-yl)pyridin-3-yl)-1,3,4-thiadiazol-2-yl)bicyclo[2.2.2]octan-1-yl)acetamide] was 2.8 nM; that for `CC(C)Nc1cc(-c2ccc3cc(C#N)cnn23)ncc1-c1nnc(N2C[C@H]3CC[C@@H](C2)[C@@H]3NC(=O)[C@@H](C)O)s1` [Example 90, (R)-N-((1R,5S,8s)-3-(5-(6-(3-cyanopyrrolo[1,2-b]pyridazin-7-yl)-4-(isopropylamino)pyridin-3-yl)-1,3,4-thiadiazol-2-yl)-3-azabicyclo[3.2.1]octan-8-yl)-2-hydroxypropanamide] was 3.6 nM; that for `CC(C)Nc1cc(-c2ccc3cc(C#N)cnn23)ncc1-c1nnc(N2C[C@H]3CC[C@@H](C2)[C@@H]3NC(=O)N2CCN(C)CC2)s1` [Example 96, N-((1R,5S,8s)-3-(5-(6-(3-cyanopyrrolo[1,2-b]pyridazin-7-yl)-4-(isopropylamino)pyridin-3-yl)-1,3,4-thiadiazol-2-yl)-3-azabicyclo[3.2.1]octan-8-yl)-4-methylpiperazine-1-carboxamide] was 2.3 nM. On to `CC(=O)N1CCN(C(=O)N[C@@H]2[C@@H]3CC[C@H]2CN(c2nnc(-c4cnc(-c5ccc6cc(C#N)cnn56)cc4NC(C)C)s2)C3)CC1` [Example 104, 4-acetyl-N-((1R,5S,8s)-3-(5-(6-(3-cyanopyrrolo[1,2-b]pyridazin-7-yl)-4-(isopropylamino)pyridin-3-yl)-1,3,4-thiadiazol-2-yl)-3-azabicyclo[3.2.1]octan-8-yl)piperazine-1-carboxamide], for which, in the assay on TNFα (setting [1]), the 50% effective concentration (EC50) was found to be 1.7 nM. As for `CC(C)Nc1cc(-c2ccc3cc(C#N)cnn23)ncc1-c1nnc(N2CC3CC(C2)N3C(=O)CN=S(C)(C)=O)s1` [Example 107, 7-(5-(5-(6-(2-((dimethyl(oxo)-16-sulfanylidene)amino)acetyl)-3,6-diazabicyclo[3.1.1]heptan-3-yl)-1,3,4-thiadiazol-2-yl)-4-(isopropylamino)pyridin-2-yl)pyrrolo[1,2-b]pyridazine-3-carbonitrile], in the assay on TNFα (setting [2]), the EC50 turned out to be 18.4 nM. On the same count and under the same terms, then `CC1(Nc2cc(-c3ccc4cc(C#N)cnn34)ncc2-c2nnc(N3CC4CC(C3)N4C(=O)C(C)(C)O)s2)COC1` [Example 112, 7-(5-(5-(6-(2-hydroxy-2-methylpropanoyl)-3,6-diazabicyclo[3.1.1]heptan-3-yl)-1,3,4-thiadiazol-2-yl)-4-((3-methyloxetan-3-yl)amino)pyridin-2-yl)pyrrolo[1,2-b]pyridazinc-3-carbonitrile], with 13.1 nM. Consider `C[C@H](C#N)Nc1cc(-c2ccc3cc(C#N)cnn23)ncc1-c1nnc(N2CC3CC(C2)N3C(=O)C(C)(C)O)s1` [Example 115, 7-(4-(((R)-1-cyanoethyl)amino)-5-(5-(6-(2-hydroxy-2-methylpropanoyl)-3,6-diazabicyclo[3.1.1]heptan-3-yl)-1,3,4-thiadiazol-2-yl)pyridin-2-yl)pyrrolo[1,2-b]pyridazine-3-carbonitrile], for which the EC50 with TNFα (Homo sapiens, Monocyte) amounted to 3.5 nM.

As for `CC(C)Nc1cc(-c2ccc3cc(C#N)cnn23)ncc1-c1nnc(N2C[C@H]3CC[C@@H](C2)[C@@H]3NC(=O)N2CCN(C3COC3)CC2)s1` [Example 116, N-((1R,5S,8s)-3-(5-(6-(3-cyanopyrrolo[1,2-b]pyridazin-7-yl)-4-(isopropylamino)pyridin-3-yl)-1,3,4-thiadiazol-2-yl)-3-azabicyclo[3.2.1]octan-8-yl)-4-(oxetan-3-yl)piperazine-1-carboxamide], the EC50 in the assay on TNFα (setting [1]) came out at 4.1 nM. Still for that read-out and setting: then `CC(C)Nc1cc(-c2ccc3cc(C#N)cnn23)ncc1-c1nnc(C2CCNCC2)s1` [Example 129, 7-(4-(isopropylamino)-5-(5-(piperidin-4-yl)-1,3,4-thiadiazol-2-yl)pyridin-2-yl)pyrrolo[1,2-b]pyridazine-3-carbonitrile], with 21.7 nM; and `CC(C)Nc1cc(-c2ccc3cc(C#N)cnn23)ncc1-c1nnc([C@H]2C[C@@H](NC(=O)C3CC3)C2)s1` [Example 281, N-((1s,3s)-3-(5-(6-(3-cyanopyrrolo[1,2-b]pyridazin-7-yl)-4-(isopropylamino)pyridin-3-yl)-1,3,4-thiadiazol-2-yl)cyclobutyl)cyclopropanecarboxamide], with 8280 nM.

Consider `CC(C)Nc1cc(-c2ccc3cc(C#N)cnn23)ncc1-c1nnc([C@H]2C[C@H](NC3COC3)C2)s1` [Example 283, 7-(4-(isopropylamino)-5-(5-((1r,3r)-3-(oxetan-3-ylamino)cyclobutyl)-1,3,4-thiadiazol-2-yl)pyridin-2-yl)pyrrolo[1,2-b]pyridazine-3-carbonitrile], for which the EC50 in the assay on TNFα (setting [1]) was found to be 19.9 nM.

Consider `CC(C)(O)C(=O)NC12CCC(c3nnc(-c4cnc(-c5ccc6cc(C#N)cnn56)cc4NC4CCOCC4)s3)(CC1)CC2` [Example 337, N-(4-(5-(6-(3-cyanopyrrolo[1,2-b]pyridazin-7-yl)-4-((tetrahydro-2H-pyran-4-yl)amino)pyridin-3-yl)-1,3,4-thiadiazol-2-yl)bicyclo[2.2.2]octan-1-yl)-2-hydroxy-2-methylpropanamide], for which the EC50 in the assay with TNFα (setting [1]) was determined as 3.3 nM.

The values above are taken from patent publication US12060351B2, “Thiadiazole IRAK4 inhibitors” (Gilead Sciences, Inc., priority 2018, dated 2024).
